Consider 30 compounds from patent publication US11155525B2 (Sanford Burnham Prebys Medical Discovery Institute, priority 2015, dated 2021).

Molecules are shown by their SMILES. pEC50: −log10 of the molar value.

For the experiment, the target named is T1, human apelin receptor (Homo sapiens, UniProt P35414).
T1 construct: host or cells: CHO cells
T1 sequence (P35414 1-380): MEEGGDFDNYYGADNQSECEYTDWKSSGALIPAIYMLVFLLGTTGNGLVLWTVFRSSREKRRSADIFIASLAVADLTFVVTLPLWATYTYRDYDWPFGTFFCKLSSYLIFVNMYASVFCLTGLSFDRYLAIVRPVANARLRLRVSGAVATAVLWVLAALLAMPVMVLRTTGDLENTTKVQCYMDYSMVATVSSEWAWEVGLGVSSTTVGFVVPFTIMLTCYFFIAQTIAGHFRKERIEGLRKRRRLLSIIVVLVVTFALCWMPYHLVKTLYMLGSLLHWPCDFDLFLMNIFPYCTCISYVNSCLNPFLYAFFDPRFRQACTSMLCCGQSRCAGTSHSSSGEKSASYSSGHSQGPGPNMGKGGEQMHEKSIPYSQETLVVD
The experiment is described as follows: Measurement of apelin receptor agonist activity (cell-based assay determining the amount of intracellular cAMP). The settings on record: CHO cells stably expressing the human apelin receptor, Forskolin 10 μM, 30 minutes, 100% efficacy = [Pyr1]-apelin-13 0.300 μM, concentration giving 50% efficacy. The procedure:
Measurement of Apelin Receptor Agonist Activity
The apelin receptor agonist activity of the compound represented by formula (I) or (II) of the present invention was measured by cell-based assay for determining the amount of intracellular cAMP.
CHO cells (DiscoveRx Corp.) stably expressing the human apelin receptor were inoculated to wells of a microtiter plate and cultured overnight at 37° C. under conditions of 5% CO2.
Each test compound and Forskolin were added to the wells at the same time. Specifically, the test compound dissolved in DMSO was diluted with a Forskolin-containing buffer [DMEM/F-12, HEPES, no phenol red (#11039, GIBCO)] to prepare a mixed solution containing the test compound at a final concentration of […] (common ratio: 3, serial dilution: 11), Forskolin at a final concentration of 10 μM, and DMSO at a final concentration of 0.3% v/v, which was then added to the wells (N═4).
After 30 minutes, the cells were lysed, and HitHunter cAMP XS+ Assay #90-0075L (DiscoveRx Corp.) was added to the cell lysate. The mixture was left overnight, and the resulting chemiluminescence signals were then detected using Analyst GT (Molecular Devices LLC.) to determine the amount of cAMP.
The amount of cAMP determined by the addition of a positive control [Pyr1]-apelin-13 (final concentration: 0.300 μM) and Forskolin (final concentration: 10 μM) at the same time was used as an index to define 100% efficacy. The amount of cAMP determined by the addition of Forskolin (final concentration: 10 μM) alone was used as an index to define 0% efficacy.
A dose response curve was prepared from the final concentration of the test compound and the determined amount of cAMP using Sigmaplot 12.0.
For `CCOC(=O)/C=C/c1nnc(-c2ccc(C)o2)n1-c1c(OC)cccc1OC` [Example 8, Ethyl (2E)-3-[4-(2,6-dimethoxyphenyl)-5-(5-methylfuran-2-yl)-4H-1,2,4-triazol-3-yl]prop-2-enoate], the pEC50 is 5.80.

`COc1cccc(OC)c1-n1c(S)nnc1-c1ccc(C)o1` [Example 1, 4-(2,6-Dimethoxyphenyl)-5-(5-methylfuran-2-yl)-4H-1,2,4-triazole-3-thiol]: the pEC50 was 7.51. Against the preceding compound, the pEC50 is 1.71 log units higher.

In the case of `COC(=O)c1ccccc1-c1nnc(-c2ccc(C)o2)n1-c1c(OC)cccc1OC` [Example 58, Methyl 2-[4-(2,6-dimethoxyphenyl)-5-(5-methyl-2-furyl)-4H-1,2,4-triazol-3-yl]benzoate], the pEC50 is 5.55. Against the preceding compound, the pEC50 is 1.96 log units lower.

In turn, `COc1cccc(OC)c1-n1c(/C=C/C(=O)O)nnc1-c1ccc(C)o1` [Example 9, (2E)-3-[4-(2,6-Dimethoxyphenyl)-5-(5-methylfuran-2-yl)-4H-1,2,4-triazol-3-yl]prop-2-enoic acid] had a negative-log EC50 (pEC50) of 7.74.

The compound `COc1cccc(OC)c1-n1c(/C=C/C(=O)N(C)OC)nnc1-c1ccc(C)o1` [Example 54, (2E)-3-[4-(2,6-Dimethoxyphenyl)-5-(5-methylfuran-2-yl)-4H-1,2,4-triazol-3-yl]-N-methoxy-N-methylprop-2-enamide] gave a pEC50 of 5.92.

For the compound `COC(=O)c1cccc(CSc2nnc(-c3ccc(C)o3)n2-c2c(OC)cccc2OC)c1` [Example 79, Methyl 3-({[4-(2,6-dimethoxyphenyl)-5-(5-methylfuran-2-yl)-4H-1,2,4-triazol-3-yl]sulfanyl}methyl)benzoate], the negative logarithm of the EC50 (pEC50) was 6.68.

As for `COc1cccc(OC)c1-n1c(SCc2nnn[nH]2)nnc1-c1ccc(C)o1` [Example 74, 5-({[4-(2,6-Dimethoxyphenyl)-5-(5-methylfuran-2-yl)-4H-1,2,4-triazol-3-yl]sulfanyl}methyl)-1H-tetrazole], the pEC50 was 7.01.

The compound `CCc1cccc(CC)c1-n1c(SCC(=O)O)nnc1-c1ccc(C)o1` [Example 31, {[4-(2,6-Diethylphenyl)-5-(5-methylfuran-2-yl)-4H-1,2,4-triazol-3-yl]sulfanyl}acetic acid] showed a pEC50 of 6.76.

`COc1cccc(OC)c1-n1c(SCc2ccccc2C(=O)O)nnc1-c1ccc(C)o1` [Example 78, 2-({[4-(2,6-Dimethoxyphenyl)-5-(5-methylfuran-2-yl)-4H-1,2,4-triazol-3-yl]sulfanyl}methyl)benzoic acid] gave a pEC50 of 7.47. Against the preceding compound, the pEC50 is 0.71 log units higher.

`COc1cccc(OC)c1-n1c(SCC(=O)O)nnc1-c1ccco1` [Example 61, {[4-(2,6-Dimethoxyphenyl)-5-(furan-2-yl)-4H-1,2,4-triazol-3-yl]sulfanyl}acetic acid] showed a pEC50 of 6.39.

The compound `COc1cccc(OC)c1-n1c(SCC(=O)NS(=O)(=O)c2ccccc2)nnc1-c1ccc(C)o1` [Example 95, 2-{[4-(2,6-Dimethoxyphenyl)-5-(5-methylfuran-2-yl)-4H-1,2,4-triazol-3-yl]sulfanyl}-N-(phenylsulfonyl)acetamide] showed a negative-log EC50 (pEC50) of 8.22. Compared with the last compound, the pEC50 is 1.83 log units higher.

Turning to `COc1cccc(OC)c1-n1c(SCC#N)nnc1-c1ccc(C)o1` [Example 84, {[4-(2,6-Dimethoxyphenyl)-5-(5-methylfuran-2-yl)-4H-1,2,4-triazol-3-yl]sulfanyl}acetonitrile], the pEC50 was 6.57.

Take `COc1cccc(OC)c1-n1c(SCc2nc(=O)o[nH]2)nnc1-c1ccc(C)o1` [Example 94, 3-({[4-(2,6-Dimethoxyphenyl)-5-(5-methylfuran-2-yl)-4H-1,2,4-triazol-3-yl]sulfanyl}methyl)-1,2,4-oxadiazol-5(2H)-one]: the negative logarithm of the EC50 (pEC50) is 7.15.

Turning to `COC(=O)c1ccc(-c2nnc(-c3ccc(C)o3)n2-c2c(OC)cccc2OC)cc1` [Example 47, Methyl 4-[4-(2,6-dimethoxyphenyl)-5-(5-methylfuran-2-yl)-4H-1,2,4-triazol-3-yl]benzoate], the negative logarithm of the EC50 (pEC50) is 6.38.

Compound `COc1cccc(OC)c1-n1c(SCc2cc(=O)[nH][nH]2)nnc1-c1ccc(C)o1` [Example 104, 5-({[4-(2,6-Dimethoxyphenyl)-5-(5-methylfuran-2-yl)-4H-1,2,4-triazol-3-yl]sulfanyl}methyl)-1,2-dihydro-3H-pyrazol-3-one] had a negative-log EC50 (pEC50) of 7.32.

On to `COc1cccc(OC)c1-n1c(SCc2cc(=O)n3cc(C)ccc3n2)nnc1-c1cccs1` [Example 11], for which the pEC50 was 8.30.

`COc1cccc(OC)c1-n1c(CCC(=O)O)nnc1-c1ccc(C)o1` [Example 13, 3-[4-(2,6-Dimethoxyphenyl)-5-(5-methylfuran-2-yl)-4H-1,2,4-triazol-3-yl]propanoic acid] had a negative-log EC50 (pEC50) of 6.80.

Consider `COc1cccc(OC)c1-n1c(CNC(=O)C(=O)O)nnc1-c1ccc(C)o1` [Example 98, ({[4-(2,6-Dimethoxyphenyl)-5-(5-methylfuran-2-yl)-4H-1,2,4-triazol-3-yl]methyl}amino)(oxo)acetic acid], for which the pEC50 was 5.93.

`CCOC(=O)CCc1nnc(-c2ccc(C)o2)n1-c1c(OC)cccc1OC` [Example 12, Ethyl 3-[4-(2,6-dimethoxyphenyl)-5-(5-methylfuran-2-yl)-4H-1,2,4-triazol-3-yl]propanoate] showed a pEC50 of 6.15.

`COc1cccc(OC)c1-n1c(CC#N)nnc1-c1ccc(C)o1` [Example 73, [4-(2,6-Dimethoxyphenyl)-5-(5-methylfuran-2-yl)-4H-1,2,4-triazol-3-yl]acetonitrile] gave a pEC50 of 5.99.

Regarding `COc1cccc(OC)c1-n1c(SCCCCC(=O)O)nnc1-c1ccc(C)o1` [Example 49, 5-{[4-(2,6-Dimethoxyphenyl)-5-(5-methylfuran-2-yl)-4H-1,2,4-triazol-3-yl]sulfanyl}pentanoic acid], the pEC50 is 6.41.

The compound `COc1cccc(OC)c1-n1c(SCP(=O)(OC(C)C)OC(C)C)nnc1-c1ccc(C)o1` [Example 96, Dipropan-2-yl ({[4-(2,6-dimethoxyphenyl)-5-(5-methylfuran-2-yl)-4H-1,2,4-triazol-3-yl]sulfanyl}methyl)phosphonate] gave a pEC50 of 6.22. The pEC50 values of the last two compounds are within 0.2 log units of each other.

The compound `COc1cccc(OC)c1-n1c(/C=C/C(=O)N(C)C)nnc1-c1ccc(C)o1` [Example 21, (2E)-3-[4-(2,6-Dimethoxyphenyl)-5-(5-methylfuran-2-yl)-4H-1,2,4-triazol-3-yl]-N,N-dimethylprop-2-enamide] showed a negative-log EC50 (pEC50) of 6.27.

Regarding `COc1cccc(OC)c1-n1c(CNC(=O)c2ccc(C)cc2)nnc1-c1ccc(C)o1` [Example 99, N-{[4-(2,6-Dimethoxyphenyl)-5-(5-methylfuran-2-yl)-4H-1,2,4-triazol-3-yl]methyl}-4-methylbenzamide], the pEC50 was 6.47.

Consider `COc1cccc(OC)c1-n1c(SCC(=O)O)nnc1-c1ccoc1` [Example 62, {[4-(2,6-Dimethoxyphenyl)-5-(furan-3-yl)-4H-1,2,4-triazol-3-yl]sulfanyl}acetic acid], for which the pEC50 was 6.09. This pEC50 lies 0.38 log units lower than the previous one.

As to `COc1cccc(OC)c1-n1c(/C=C\C(=O)O)nnc1-c1ccc(C)o1` [Example 56, (2Z)-3-[4-(2,6-Dimethoxyphenyl)-5-(5-methylfuran-2-yl)-4H-1,2,4-triazol-3-yl]prop-2-enoic acid], the negative-log EC50 (pEC50) was 7.32.

In the case of `COc1cccc(OC)c1-n1c(SCc2cc[nH]c(=O)c2)nnc1-c1ccc(C)o1` [Example 18, 4-({[4-(2,6-Dimethoxyphenyl)-5-(5-methylfuran-2-yl)-4H-1,2,4-triazol-3-yl]sulfanyl}methyl)pyridin-2(1H)-one], the pEC50 was 6.25.

As for `COc1cccc(OC)c1-n1c(SCc2ccccc2)nnc1-c1ccc(C)o1` [Example 40, 3-(Benzylsulfanyl)-4-(2,6-dimethoxyphenyl)-5-(5-methylfuran-2-yl)-4H-1,2,4-triazole], the negative logarithm of the EC50 (pEC50) is 5.95.

The compound `COc1cccc(OC)c1-n1c(/C=C/c2cc(=O)n3cc(C)ccc3n2)nnc1-c1ccc(C)o1` [Example 52, 2-{(E)-2-[4-(2,6-Dimethoxyphenyl)-5-(5-methylfuran-2-yl)-4H-1,2,4-triazol-3-yl]ethenyl}-7-methyl-4H-pyrido[1,2-a]pyrimidin-4-one] showed a negative logarithm of the EC50 (pEC50) of 6.66.

`COc1cccc(OC)c1-n1c(SCC2=NOC(=O)C2)nnc1-c1ccc(C)o1` [Example 103, 3-({[4-(2,6-Dimethoxyphenyl)-5-(5-methylfuran-2-yl)-4H-1,2,4-triazol-3-yl]sulfanyl}methyl)-1,2-oxazol-5(4H)-one] showed a pEC50 of 7.34.
